Molecular target: T1, EDNRB (Homo sapiens, UniProt P24530)
T1 construct: purchased Promega (in-house HiBiT-GPCR construct library, NanoBRET)
T1 sequence (P24530 27-442): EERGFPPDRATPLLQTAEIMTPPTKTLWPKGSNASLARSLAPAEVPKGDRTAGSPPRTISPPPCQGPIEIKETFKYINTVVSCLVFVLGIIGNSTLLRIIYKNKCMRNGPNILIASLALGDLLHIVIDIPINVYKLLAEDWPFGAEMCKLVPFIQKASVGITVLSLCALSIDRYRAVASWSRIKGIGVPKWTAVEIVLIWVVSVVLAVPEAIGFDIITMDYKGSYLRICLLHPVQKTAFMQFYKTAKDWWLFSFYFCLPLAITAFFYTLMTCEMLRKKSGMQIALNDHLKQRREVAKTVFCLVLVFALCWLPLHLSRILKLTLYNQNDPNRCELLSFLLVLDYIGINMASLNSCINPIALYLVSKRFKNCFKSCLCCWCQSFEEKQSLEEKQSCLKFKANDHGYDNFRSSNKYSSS
Assay: NanoBRET screen HiBiT-EDNRB in HEK293
Format: binding
Method: Each tracer candidate was screened across the entire library of HiBiT-GPCR constructs using NanoBRET as the detection modality. As depicted in Figure 4A, the specificity of interactions was evaluated through decrease in BRET due to competitive displacement of a bound tracer by excess parental compound. Each tracer was analyzed for binding to each HiBiT-GPCR fusion in the absence and in the presence of competing parental compound. Briefly, HEK293 cells were transfected with HiBiT-GPCR constructs diluted into promoterless DNA to reduce expression and maximize translocation to the cell surface. Each tracer candidate was then screened at concentrations of 1 μM and 0.1 μM across cells expressing these fusions. Cells were treated for 1.5 h with tracer either alone or in the presence of 20 μM competing parental compound (i.e., control). BRET was measured upon addition of purified LgBiT and subsequent complementation with HiBiT genetically fused to a GPCR. The specificity of interactions was assessed through a decrease in BRET signal due to competitive displacement of the bound tracer. To further gauge the robustness of these interactions, the fold response over the control (i.e., BRETtracer/BRETcontrol) was calculated. We chose a 1.5-fold response, which translates to ≥7-fold signal over noise as the minimal threshold required to score an interaction as positive.
HiBiT-GPCR DNA constructs were diluted in 10 mM Tris pH 8 to a final concentration of 0.01 μg/μL, arrayed in 96-well plates and stored at −20 °C. For transfection, HEK293 cells were suspended in Opti-MEM (without phenol red) supplemented with 2% fetal bovine serum (Seradigm) and 100 units/mL penicillin–streptomycin (Gibco) at a final concentration of 220,000 cells/mL and dispensed into white 96-well plates at 90 μL/well. Subsequent transfections and screens were carried using an Agilent Bravo Automated Liquid Handling Platform. First, the 96-well HiBiT DNA arrays were diluted 25-fold in Opti-MEM (without serum or phenol red) to a final concentration of 0.0004 μg/μL and 20 μL of the diluted DNAs were transferred into new 96-well plates. Next, promoterless carrier DNA (1 μg/μL) was diluted 25-fold (0.04 μg/μL) and then dispensed into the diluted arrays at 20 μL/well. Following brief mixing, Viafect transfection reagent (Promega) diluted 16-fold into Opti-MEM was dispensed into the plates at 40 μL/well. After mixing by pipetting, plates were incubated for 10 min on the pipetting station deck. The DNA-transfection reagent complexes were then added to plates containing cells. To facilitate the screen, 10 μL of DNA-transfection reagent complexes were added in duplicates to the top 4 and bottom 4 rows, resulting in two identical 48-well arrays per plate. Plates with transfected cells were incubated for 18–20 h at 37 °C/5% CO2. A screen of each tracer across the entire library using two different concentrations requires duplicate plates of transfected cells. Depending on the number of tracers being screened, transfections can be scaled up using the same ratios. The next day, for each tracer, four 20× screening solutions in tracer dilution buffer (Promega) were prepared: two duplicates at final concentration of 20 μM and two duplicates at a final concentration of 2 μM. […] The four resulting solutions were diluted 4-fold in Opti-MEM without serum or phenol red to generate 5× solutions (5 µM and 0.5 µM tracer +/− 100 μM competing compound). To screen the library, a BioTek MultiFlo FX liquid dispenser was used to dispense 22.5 µL of tracer solution to the top 4 rows and 22.5 µL tracer + competing compound solution to the 4 bottom rows. Plates were briefly mixed on an orbital shaker and incubated for 1.5 h at room temperature. […] Plates were briefly mixed on an orbital shaker and incubated for 15 min to allow complementation.

Row | SMILES | NanoBRET Fold Response (EDNRB, tracer 0.1μM) | NanoBRET Fold Response (EDNRB, tracer 1μM) | also measured
1 | O=C(CCc1ccc2n1[B-](F)(F)[N+]1=C(c3ccc[nH]3)C=CC1=C2)NCc1ccc(C(=O)NCCOCCC(=O)N[C@@H]2CC[C@@]3(O)[C@H]4Cc5ccc(O)c6c5[C@@]3(CCN4CC3CC3)[C@H]2O6)cc1 [Naltrexone-3-NB590] | 0.94 | 1.06 | –
2 | CCCn1c(=O)c2[nH]c(-c3ccc(OCC(=O)NCCNC(=O)CCOCCNC(=O)c4ccc(CNC(=O)CCc5ccc6n5[B-](F)(F)[N+]5=C(c7ccc[nH]7)C=CC5=C6)cc4)cc3)nc2n(CCC)c1=O [XAC-3-NB590] | 0.92 | 1.18 | –
3 | CC(C)N(CC[C@H](c1ccccc1)c1cc(CCNC(=O)c2ccc(CNC(=O)CCc3ccc4n3[B-](F)(F)[N+]3=C(c5ccc[nH]5)C=CC3=C4)cc2)ccc1O)C(C)C [Tolterodine-BZ-NB590] | 0.96 | 0.98 | –
4 | COc1ccc2[nH]c(-c3ccc(CNC(=O)CCOCCOCCOCCOCCNC(=O)CCc4ccc5n4[B-](F)(F)[N+]4=C(c6ccc[nH]6)C=CC4=C5)cc3)c(CCNC(C)=O)c2n1 [AzomelatoninICO9-2-NB590] | – | – | NanoBRET Fold Response (0.1μM tracer): 0.95; NanoBRET Fold Response (1μM tracer): 1.11
5 | CN1CCN(C2=Nc3cc(Cl)ccc3N(CC(=O)NCCOCCOCCOCCOCCNC(=O)CCc3ccc4n3[B-](F)(F)[N+]3=C(c5ccc[nH]5)C=CC3=C4)c3ccccc32)CC1 [Clozapine-c-2-NB590] | – | – | NanoBRET Fold Response (EDNRB, 0.1μM tracer): 1.00; NanoBRET Fold Response (EDNRB, 1μM tracer): 1.06
6 | COc1ccccc1N1CCN(CCCCN2C(=O)c3ccc(CNC(=O)CCOCCNC(=O)c4ccc(CNC(=O)CCc5ccc6n5[B-](F)(F)[N+]5=C(c7ccc[nH]7)C=CC5=C6)cc4)cc3C2=O)CC1 [NAN-190-3-NB590] | 0.95 | 1.00 | –
7 | Cc1nc2n(c(=O)c1CCN1CCC(c3noc4cc(F)ccc34)CC1)CCCC2OC(=O)NCCOCCOCCOCCOCCNC(=O)CCc1ccc2n1[B-](F)(F)[N+]1=C(c3ccc[nH]3)C=CC1=C2 (stereo not shown) [Risperidone-2-NB590] | 1.02 | 0.97 | –
8 | O=C(CCOCCOCCOCCOCCNC(=O)CCc1ccc2n1[B-](F)(F)[N+]1=C(c3ccc[nH]3)C=CC1=C2)NCCCN1CCN(C2=Nc3ccccc3Oc3ccc(Cl)cc32)CC1 [Loxapine-a-2-NB590] | 1.05 | 0.89 | –
9 | COc1ccccc1N1CCN(CCCCN2C(=O)c3ccc(CNC(=O)CCOCCOCCOCCOCCNC(=O)CCc4ccc5n4[B-](F)(F)[N+]4=C(c6ccc[nH]6)C=CC4=C5)cc3C2=O)CC1 [NAN-190-2-NB590] | 1.05 | 0.99 | –
10 | CC(C)N(CC[C@H](c1ccccc1)c1cc(CCNC(=O)CCOCCOCCOCCOCCNC(=O)CCc2ccc3n2[B-](F)(F)[N+]2=C(c4ccc[nH]4)C=CC2=C3)ccc1O)C(C)C [Tolterodine-2-NB590] | 0.97 | 1.03 | –
11 | N#CN=C(NCCCOc1cccc(CN2CCCCC2)c1)NCCNC(=O)CCOCCOCCOCCOCCNC(=O)CCc1ccc2n1[B-](F)(F)[N+]1=C(c3ccc[nH]3)C=CC1=C2 [Aminopotentidine-2-NB590] | 1.03 | 1.02 | –
12 | CCOC(=O)c1cc(C#N)c(N2CCC(C(=O)NS(=O)(=O)Cc3ccccc3/C=C/C(=O)NCCNC(=O)CCc3ccc4n3[B-](F)(F)[N+]3=C(c5ccc[nH]5)C=CC3=C4)CC2)nc1C [AZD1283-1-NB590] | – | – | NanoBRET Fold Response (EDNRB, 0.1μM): 1.03; NanoBRET Fold Response (EDNRB, 1μM): 0.98
13 | CN(C)CCC=C1c2ccccc2CCc2ccc(C(=O)NCCNC(=O)CCOCCOCCOCCOCCNC(=O)CCc3ccc4n3[B-](F)(F)[N+]3=C(c5ccc[nH]5)C=CC3=C4)cc21 [Amitriptyline-b-2-NB590] | – | – | NanoBRET Fold Response (tracer at 1μM, listed as amitriptyline-b-2-NB590): 0.83
14 | CN(C)CCC=C1c2ccccc2CCc2ccc(C(=O)NCCNC(=O)CCOCCOCCOCCOCCNC(=O)CCc3ccc4n3[B-](F)(F)[N+]3=C(c5ccc[nH]5)C=CC3=C4)cc21 [Amitriptyline-a-2-NB590] | – | – | NanoBRET Fold Response (tracer at 0.1μM): 1.04; NanoBRET Fold Response (tracer at 1μM): 1.05
15 | O=C(CCc1ccc2n1[B-](F)(F)[N+]1=C(c3ccc[nH]3)C=CC1=C2)NCCOCCOCCNC(=O)OCCOCCN1CCN(C2=Nc3ccccc3Sc3ccccc32)CC1 [Quetiapine-a-2-NB590] | 0.97 | 0.99 | –
16 | Cc1cc2c(s1)Nc1ccccc1N=C2N1CCN(CCCNC(=O)CCOCCOCCOCCOCCNC(=O)CCc2ccc3n2[B-](F)(F)[N+]2=C(c4ccc[nH]4)C=CC2=C3)CC1 [Olanzapine-a-2-NB590] | 1.00 | 0.89 | –
17 | CN1CCN(C2=Nc3cc(Cl)ccc3Nc3ccc(CNC(=O)CCOCCOCCOCCOCCNC(=O)CCc4ccc5n4[B-](F)(F)[N+]4=C(c6ccc[nH]6)C=CC4=C5)cc32)CC1 [Clozapine-b-2-NB590] | – | – | NanoBRET Fold Response (EDNRB, 0.1μM tracer): 0.96; NanoBRET Fold Response (EDNRB, 1μM tracer): 0.99
18 | COc1ccc2c(n1)c(CCNC(C)=O)cn2CCNC(=O)CCc1ccc2n1[B-](F)(F)[N+]1=C(c3ccc[nH]3)C=CC1=C2 [Azamelatonin-1-NB590] | – | – | NanoBRET Fold Response (0.1μM tracer): 0.96; NanoBRET Fold Response (1μM tracer): 0.96
19 | CN(CCC=C1c2ccccc2CCc2ccccc21)C(=O)CCOCCOCCOCCOCCNC(=O)CCc1ccc2n1[B-](F)(F)[N+]1=C(c3ccc[nH]3)C=CC1=C2 [Amitriptyline-e-2-NB590] | – | – | NanoBRET Fold Response (tracer at 1μM): 1.01
20 | O=C(CCc1ccc2n1[B-](F)(F)[N+]1=C(c3ccc[nH]3)C=CC1=C2)NCc1ccc(C(=O)NCCOCCOCCNCC(O)COc2cccc3ccccc23)cc1 (stereo not shown) [Propranolol-3-NB590] | – | – | NanoBRET Fold Response (EDNRB, 0.1μM): 1.05; NanoBRET Fold Response (EDNRB, 1μM): 1.01
21 | O=C(CCOCCOCCOCCOCCNC(=O)CCc1ccc2n1[B-](F)(F)[N+]1=C(c3ccc[nH]3)C=CC1=C2)NCCCN1CCN(C2=Nc3cc(Cl)ccc3Nc3ccccc32)CC1 [Clozapine-a-2-NB590] | – | – | NanoBRET Fold Response (EDNRB, 0.1μM tracer): 1.01; NanoBRET Fold Response (EDNRB, 1μM tracer): 0.93

Source: paper PMC8151276, “An Integrated Approach toward NanoBRET Tracers for Analysis of GPCR Ligand Engagement” (Molecules, 2021)
